The structures appear in SMILES notation.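 Exposure lasted 48 hours, with cells grown in 96-well plates and compounds tested at five concentrations. At the GI50, growth is halved. Definition used: TGI = concentration required for complete inhibition of growth.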 *1 amine or outer side, *2 acyl side, *3 side chain or, on linkers, in order; H or OH if unused. Where a SMILES comes first, the peptide text is derived from it. [ ]: non-standard residue; d: D form. The star is where a group is joined. ξ: configuration not given here. X15 = CCN(CC)c1ccc2cc(N*)c(=O)oc2c1; dIva = CC[C@@](C)(N)C(=O)O; X14 = O=C(OCCN[*:1])[*:2]; Aib = CC(C)(N)C(=O)O; ξP = O=C(O)C1CCCN1; βAla = NCCC(=O)O

This test has as its system MDA-MB-468 breast. Briefly: DTP human tumour cell line panel, 48 h.
In the case of `Nc1n[nH]c2cccc(C#Cc3cccc(C(=O)Nc4cc(CN5CCOCC5)cc(C(F)(F)F)c4)c3)c12`, the GI50 is 3470 nM and the total growth inhibition concentration (TGI) is 12900 nM.
The matching figures for `O=C(COc1cccc(/C=C2\COc3ccc(Cl)cc3C2=O)c1)c1ccc(Cl)cc1`: 2820 nM and 9260 nM.
The matching figures for `CS(=O)(=O)Nc1ccc(N=Cc2c(O)[nH]c3ccccc23)cc1`: over 25000 nM and over 25000 nM.
The matching figures for `COc1cc(C2C3=C(COC3=O)Nc3cc4c(cc32)CCC4)cc2c1OCO2` (centres undefined): 28.1 nM and 147 nM.
For the compound `C[C@]12CCc3sc(Nc4ccc(O)cc4)nc3C1=CC[C@@H]1[C@@H]2CC[C@]2(C)C(=O)CC[C@@H]12`, the GI50 was 2170 nM and the TGI was determined as 5800 nM.
Taken in the same sequence, the figures for `CCOc1ccccc1/C=N\N=C(\N)N/N=C/c1ccccc1OCC` were 1720 nM and 8480 nM.
The matching figures for `CC(=O)O[C@H]1CC[C@@]2(C)[C@@H](CC[C@@H]3[C@@H]2CC[C@]2(C)C=C(C=O)C[C@@H]32)C1`: 15500 nM and 38200 nM.
Regarding `CCN(CC)c1ccc(C(=N)c2ccc(N(C)C)cc2)cc1`, the GI50 was 113 nM and the TGI was determined as 2250 nM.
Taken in the same sequence, the figures for `Nc1c(C(=O)Nc2ccccc2)sc2nc3c(cc12)CN(Cc1ccccc1)CC3` were 17000 nM and over 100000 nM.
Taken in the same sequence, the figures for `FC(F)(F)c1ccc(-c2cnc(Cl)nc2NCc2cc(C(F)(F)F)cc(C(F)(F)F)c2)cc1` were 2060 nM and 9150 nM.
Taken in the same sequence, the figures for `CCCCNC(=O)NS(=O)(=O)c1ccc(N2N=C(c3cc(C)ccc3C)CC2c2cc(OC)c(OC)c(OC)c2)cc1` (centres undefined) were 2170 nM and 5350 nM.
Consider `O=C(c1cccnc1)c1cc(-c2ccccn2)c(=O)n2ccccc12`, for which the GI50 was over 100000 nM and the concentration for total growth inhibition (TGI) was over 100000 nM.
`Nc1ccc(-c2ccc(N)cc2I)c(I)c1`: the GI50 is 5930 nM and the TGI amounted to 44900 nM.
Regarding `Nc1nc(N)c(N=O)c(OCC2CCCCC2)n1`, the GI50 is 15200 nM and the TGI is 52900 nM.
Turning to `Cn1ccnc1C(=O)/C=C/c1ccc(CC(=O)Nc2ccc(C(F)(F)F)cc2)cc1`, the GI50 is 2090 nM and the TGI worked out at 4660 nM.
The matching figures for `O=C(N/N=C/c1cc([N+](=O)[O-])ccc1O)c1cccc2ccccc12`: 1520 nM and 4740 nM.
Taken in the same sequence, the figures for `COc1cc(C(=O)/C=C/c2cccnc2Nc2ccccc2)cc(OC)c1OC` were 665 nM and 2100 nM.
As for `COc1cc(C2CC(c3ccc(N(C)C)cc3)=NN2C(C)=O)cc(OC)c1OC` (centres undefined), the GI50 was 1720 nM and the TGI is over 100000 nM.
With `CC1(C)CC[C@]2(C(=O)N3CCOCC3)CC[C@]3(C)C(=CC[C@@H]4[C@@]5(C)C/C(=C/c6ccncc6)C(=O)C(C)(C)[C@@H]5CC[C@]43C)[C@@H]2C1`, the GI50 was 712 nM and the TGI is over 100000 nM.
Taken in the same sequence, the figures for `CCCOc1nc(SCCC)nc2c1cnn2-c1ccccc1` were over 100000 nM and over 100000 nM.
`COCCNc1cc(NC(=O)N2CCCc3cc(CN4CCN(C)CC4=O)c(C=O)nc32)ncc1C#N`: the GI50 is 26500 nM and the total growth inhibition concentration (TGI) is over 50000 nM.
The matching figures for `O=C(OCCBr)c1ccc(Cl)c([N+](=O)[O-])c1`: 1900 nM and 4090 nM.
Taken in the same sequence, the figures for `CCN1C(=O)N(CC)C2C1NN=c1s/c(=C\c3cc4ccccc4[nH]3)c(=O)n12` (centres undefined) were under 10 nM and 8520 nM.
Take `OCC1OC(n2cnc3c(=S)nc[nH]c32)C(O)C1O` (centres undefined): the GI50 was 631 nM and the TGI is over 100000 nM.
The matching figures for `CCNCCNc1cc(C2CCCCC2)c(C#N)c2nc3ccccc3n12`: 751 nM and 2100 nM.
Taken in the same sequence, the figures for `CCCCN(CCCC)c1ccc(C(=NC(C)CCCN(CC)CC)c2ccc(N(C)C)cc2)cc1` (centres undefined) were 795 nM and 1670 nM.
`Cc1[nH]c2ccccc2c1CCNCc1ccc(/C=C/C(=O)NO)cc1`: the GI50 is under 10 nM and the TGI was determined as 140 nM.
For `C=C1CCC2C3(C)COC(c4ccccc4Br)OC3CCC2(C)C1C/C=C1/C(=O)OCC1OC(C)=O` (centres undefined), the GI50 was 1200 nM and the total growth inhibition concentration (TGI) came out at 2820 nM.
Compound `CC(C)(C#N)c1cc(C(=O)Nc2cc(Nc3ncccc3-c3ncnc4nc[nH]c34)ccc2F)cc(C(F)(F)F)c1` displayed a total growth inhibition concentration (TGI) of over 4090 nM.
In the case of `COc1ccc(-c2nn(-c3cccc(Cl)c3)cc2-c2cc(-c3ccccc3)nc(N)n2)cc1`, the GI50 is 1720 nM and the TGI was 3590 nM.
The matching figures for `CN(C)c1ccc(C(=C2C=CC(=[N+](C)C)C=C2)c2ccc(N(C)C)cc2)cc1`: 120 nM and 430 nM.
Taken in the same sequence, the figures for `CCCCCCCOc1c(OC)cc(C2CC(=O)Nc3c2c(C)nn3-c2nc3ccccc3[nH]2)cc1OC` (centres undefined) were 2450 nM and 7120 nM.
The matching figures for `O=C(CCCSc1nc(-c2ccccc2)cc(-c2ccc(Cl)cc2)n1)NO`: 1580 nM and 3890 nM.
`CC(C)c1ccc(Nc2nccc(-c3cnn4ncccc34)n2)cc1`: the GI50 was 271 nM and the TGI was 833 nM.
On to `CC1(C)CC[C@]23CC[C@]4(C)[C@H](CC[C@@H]5[C@@]6(C)CC[C@H](NCO)C(C)(C)[C@@H]6CC[C@]54C)[C@H]2[C@H]1OC3`, for which the GI50 was 1850 nM and the TGI stood at 3710 nM.
The matching figures for `CCN(CC)c1ccc2cc(NC(=O)OCCNC(=O)CCNC(=O)[C@H](CC(C)C)NC(=O)C(C)(C)NC(=O)C(C)(C)NC(=O)[C@H](CC(C)C)NC(=O)CCNC(=O)C(C)(C)NC(=O)[C@H](CC(C)C)NC(=O)CCNC(=O)[C@@](C)(CC)NC(=O)[C@H](C)NC(=O)CCNC(=O)C(C)(C)NC(=O)[C@H](C)NC(=O)[C@@H]3CCCN3C(=O)[C@@](C)(CC)NC(=O)[C@H](Cc3ccccc3)NC(=O)C3CCCN3C(=O)C(C)(C)NC(=O)C3CCCN3C(=O)C(C)(C)NC(C)=O)c(=O)oc2c1` (some centres undefined) (Ac-[Aib][ξP][Aib][ξP]F[dIva]PA[Aib][βAla]A[dIva][βAla]L[Aib][βAla]L[Aib][Aib]L[βAla][X14]-X15): 2.77 nM and 7.74 nM.
As to `CN(C)CC1CCCCCC(CN(C)C)C1=O` (centres undefined), the GI50 is 502 nM and the total growth inhibition concentration (TGI) came out at 2540 nM.
Taken in the same sequence, the figures for `O=C(CN1CCN(c2ccccc2)CC1)N1CCN(c2nnc(-c3ccc(Cl)cc3)c(-c3ccc(Cl)cc3)n2)CC1` were 18900 nM and 95300 nM.
In the case of `CN1CCN(Cc2ccc(NC(=O)c3cncc(C#Cc4cnc5ccc(OCC(F)F)nn45)c3)cc2C(F)(F)F)CC1`, the GI50 is 428 nM and the TGI worked out at 1330 nM.
The matching figures for `Nc1n[nH]c2ccc([C@@H]3Nc4ccc5[nH]ncc5c4[C@H]4C5C=CC(C5)[C@@H]34)cc12` (some centres undefined): 329 nM and 16000 nM.

A word on the GI50: it is the concentration at which growth is held to half of that of the control. What is called TGI is the concentration at which net growth stops. The low end stands for greater sensitivity of the cells, the high end for lower sensitivity of the cells.

(Values after PubChem BioAssay (NCI).)
